Measured values from patent US9365522B2, “Pyrazole amide derivative” (AMGEN INC., priority 2015, dated 2016).

Target: T1, ligand binding domain of human ROR gamma (Homo sapiens, UniProt P51449)
T1 construct: NM_001001523; expressed in transfected cells; host or cells: HEK293T
T1 sequence (P51449 247-497 isoform P51449-2): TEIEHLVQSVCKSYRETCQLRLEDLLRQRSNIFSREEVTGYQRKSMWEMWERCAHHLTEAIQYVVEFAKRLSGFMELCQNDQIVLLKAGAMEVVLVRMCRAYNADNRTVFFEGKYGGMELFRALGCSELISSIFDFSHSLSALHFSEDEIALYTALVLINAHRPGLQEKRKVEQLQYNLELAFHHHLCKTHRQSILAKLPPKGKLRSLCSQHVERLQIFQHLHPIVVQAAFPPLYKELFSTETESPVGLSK
Assay: ROR gamma reporter gene assay (GAL4-RORγ LBD luciferase, Dual-Glo)
Format: cell-based
Conditions: HEK293T cells transfected with pM-ROR gamma, 8 concentrations 3.5 nM to 10.5 μM, 24 h incubation; read-out: result (pIC50, inhibition of RORγ transcriptional activity) (converted)
Outline: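 Transient GAL4-RORγ LBD (aa 247-497) / 5×UAS-luc / pRL-CMV cotransfection in HEK293T, charcoal-stripped 10% FBS. 8-pt dose, 3.5 nM–10.5 μM, 0.075% DMSO final. 24 h, 37 °C, 5% CO2. Dual-Glo firefly/renilla readout; pIC50 from curve fit.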

First: CC1(C)[C@@H]2C[C@H](N(C[C@H](O)c3ccccc3C(F)(F)F)C(=O)c3cnn([C@H]4CC[C@](C)(C(=O)O)CC4)c3C(F)(F)F)C[C@@H]21 [Example 372, trans-4-(4-(((1R,3r,5S)-6,6-dimethylbicyclo[3.1.0]hexan-3-yl)(2-hydroxy-2-(2-(trifluoromethyl)phenyl)ethyl)carbamoyl)-5-(trifluoromethyl)-1H-pyrazol-1-yl)-1-methylcyclohexanecarboxylic acid]
Second: CC1(C)[C@@H]2C[C@H](N(C[C@@H](O)c3ccccc3C(F)(F)F)C(=O)c3cnn([C@H]4CC[C@](C)(C(=O)O)CC4)c3C(F)(F)F)C[C@@H]21 [Example 373, trans-4-(4-(((1R,3r,5S)-6,6-dimethylbicyclo[3.1.0]hexan-3-yl)(2-hydroxy-2-(2-(trifluoromethyl)phenyl)ethyl)carbamoyl)-5-(trifluoromethyl)-1H-pyrazol-1-yl)-1-methylcyclohexanecarboxylic acid]
The IC50 of the first is 10-fold lower: 331000 pM for the first, 3.39e+06 pM for the second.

Going from `COc1cccc(Cl)c1[C@@H](O)CN(C(=O)c1cnn([C@H]2CC[C@](C)(C(=O)O)CC2)c1Cl)[C@H]1C[C@@H]2[C@H](C1)C2(C)C` [Example 374, trans-4-(5-chloro-4-((2-(2-chloro-6-methoxyphenyl)-2-hydroxyethyl)((1R,3r,5S)-6,6-dimethylbicydo[3.1.0]hexan-3-yl)carbamoyl)-1H-pyrazol-1-yl)-1-methylcyclohexanecarboxylic acid] to `COc1cccc(Cl)c1[C@H](O)CN(C(=O)c1cnn([C@H]2CC[C@](C)(C(=O)O)CC2)c1Cl)[C@H]1C[C@@H]2[C@H](C1)C2(C)C` [Example 375, trans-4-(5-chloro-4-((2-(2-chloro-6-methoxyphenyl)-2-hydroxyethyl)((1R,3r,5S)-6,6-dimethylbicydo[3.1.0]hexan-3-yl)carbamoyl)-1H-pyrazol-1-yl)-1-methylcyclohexanecarboxylic acid], the IC50 falls from 661000 pM to 107000 pM (6.2-fold).

`CC1(C)[C@@H]2C[C@H](N(CCc3n[nH]c4cccc(Cl)c34)C(=O)c3cnn([C@H]4CC[C@](C)(C(=O)O)CC4)c3C(F)(F)F)C[C@@H]21` [Example 376, trans-4-(4-((2-(4-chloro-1H -indazol-3-yl)ethyl)((1R,3r,5S)-6,6-dimethylbicyclo[3.1.0]hexan-3-yl)carbamoyl)-5-(trifluoromethyl)-1H-pyrazol-1-yl)-1-methylcyclohexanecarboxylic acid] and `CC(CN(C(=O)c1cnn([C@H]2CC[C@](C)(C(=O)O)CC2)c1C(F)(F)F)[C@H]1C[C@@H]2[C@H](C1)C2(C)C)c1c[nH]c2cccc(Cl)c12` (stereo partly drawn) [Example 377, trans-4-(4-((2-(4-chloro-1H-indol-3-yl)propyl)((1R,3r,5S)-6,6-dimethylbicyclo[3.1.0]hexan-3-yl)carbamoyl)-5-(trifluoromethyl)-1H-pyrazol-1-yl)-1-methylcyclohexanecarboxylic acid] are within 1.5-fold of each other in IC50: 309000 pM for the first, 437000 pM for the second.

`CC1(CN(CC(=O)c2c(Cl)cncc2Cl)C(=O)c2cnn([C@H]3CC[C@](C)(C(=O)O)CC3)c2Cl)CC1` [Example 378, trans-4-(5-chloro-4-((2-(3,5-dichloropyridin-4-yl)-2-oxoethyl)-((1-methylcyclopropyl)methyl)carbamoyl)pyrazol-1-yl)-1-methylcyclohexane-1-carboxylic acid] and `Cc1cncc(Cl)c1C(=O)CN(CC(C)(C)C)C(=O)c1cnn([C@H]2CC[C@](C)(C(=O)O)CC2)c1C(F)(F)F` [Example 379, trans-4-(4-((2-(3-chloro-5-methylpyridin-4-yl)-2-oxoethyl)-(2,2-dimethylpropyl)carbamoyl)-5-(trifluoromethyl)pyrazol-1-yl)-1-methylcyclohexane-1-carboxylic acid] are within 1.5-fold of each other in IC50: 74100 pM for the first, 79400 pM for the second.
